Test results published in patent publication US11124481B2 (Exelixis, Inc., priority 2014, dated 2021).

Experiments:
[1] = radiometabolite analysis in mouse plasma (radio-TLC)
[2] = biodistribution in mice with subcutaneous U87 tumor cells (gamma counter); assay type: in vivo, athymic BALB/C mice
Procedure: . After acute sedation with isofluorane (2%) animals were sacrificed by decapitation at 15 and 60 min following tracer injection. Blood samples were collected and portions of the liver, kidneys, heart, lungs, muscles, stomach, large intestine, small intestine, bladder, spleen, brain and femur were dissected and weighed. Radioactivity of each sample was measured using a gamma counter (1480 Wizard™ 3 Automatic Gamma Counter, PerkinElmer). Decay-corrected radioactivity concentrations were calculated as percentage of injected dose per gram tissue (% ID/g).

U87 tumor cells = assay: dynamic PET imaging in mice with orthotopically implanted U87 tumor cells; assay type: in vivo, athymic BALB/C mice
Procedure: Rodent imaging experiments were performed on a dedicated small animal microPET® F120™ scanner (Siemens Preclinical Solutions, Knoxville, Tenn.). Both static and dynamic PET imaging studies were conducted on athymic BALB/C mice (Harlan) and stereotactically implanted U87 tumor cells. The mice were administered about 6.4-7.4 MBq (0.17-0.2 mCi) of [^18F]-Cabozantinib via the tail vein. The mice were anesthetized (2% isofluorane in O2 at a flow rate of 1 mL/min) during tracer injection and throughout the imaging period. After injection, each mouse was laid in the microPET scanner. A 10 minutes transmission scan was acquired using a ^57Co point source prior to either the 2 hour dynamic scan or the 45 min static scan starting at about 15 minutes after injection. Mice were visually monitored for breathing, and a heating pad was used to maintain body temperature throughout the entire procedure. […] Data were analyzed by manually drawing standardized volumes of interest using the Siemens ASIPro VM software package version 6.6. […]
FIG. 3 depicts Positron Emission Tomography (PET) images of mice injected with [^18F]-Cabozantinib. […] A tumor:brain ratio, which is the ratio of the amount of [^18F]-Cabozantinib in the tumor compared to the amount of [^18F]-Cabozantinib in the brain in non-tumor regions, of 2.6 to 2.8 was measured for U87 stereotactically implanted tumor cells. […]

[3] = dynamic PET imaging in tumor-free control mice; assay type: in vivo, athymic BALB/C mice
Procedure: Rodent imaging experiments were performed on a dedicated small animal microPET® F120™ scanner (Siemens Preclinical Solutions, Knoxville, Tenn.). Both static and dynamic PET imaging studies were conducted on athymic BALB/C mice (Harlan) and stereotactically implanted U87 tumor cells. The mice were administered about 6.4-7.4 MBq (0.17-0.2 mCi) of [^18F]-Cabozantinib via the tail vein. The mice were anesthetized (2% isofluorane in O2 at a flow rate of 1 mL/min) during tracer injection and throughout the imaging period. After injection, each mouse was laid in the microPET scanner. A 10 minutes transmission scan was acquired using a ^57Co point source prior to either the 2 hour dynamic scan or the 45 min static scan starting at about 15 minutes after injection. Mice were visually monitored for breathing, and a heating pad was used to maintain body temperature throughout the entire procedure. PET data were reconstructed using an OSEM 2D algorithm into a 128×128×95 image matrix (resulting in final voxel dimensions of 0.79×0.79×0.8 mm). Dead time, decay correction, attenuation correction, and normalization were applied to all PET data. Data were analyzed by manually drawing standardized volumes of interest using the Siemens ASIPro VM software package version 6.6. […]

SMILES: COc1cc2nccc(Oc3ccc(NC(=O)C4(C(=O)Nc5ccc([18F])cc5)CC4)cc3)c2cc1OC [[^18F]-Cabozantinib, cyclopropane-1,1-dicarboxylic acid [4-(6,7-dimethoxy-quinolin-4-yloxy)-phenyl]-amide(4-[^18F]-fluoro-phenyl)amide]
- radiometabolites seen in plasma [1]: Only one radiometabolite
- tracer remaining intact in plasma ([1]; 15 and 60 minutes after injection): over 80%
- tracer uptake blood ([2]; 15 minutes post injection, n=6): 1.8±0.2 % ID/g
- tracer uptake brain ([2]; 15 minutes post injection, n=6): 0.9±0.2 % ID/g
- tracer uptake femur ([2]; 15 minutes post injection, n=6): 2.9±1.0 % ID/g
- tracer uptake heart ([2]; 15 minutes post injection, n=6): 12.9±3.2 % ID/g
- tracer uptake kidneys ([2]; 15 minutes post injection, n=6): 14.2±3.0 % ID/g
- tracer uptake large intestines ([2]; 15 minutes post injection, n=6): 4.7±2.1 % ID/g
- tracer uptake liver ([2]; 15 minutes post injection, n=6): 14.4±3.1 % ID/g
- tracer uptake lungs ([2]; 15 minutes post injection, n=6): 6.5±1.1 % ID/g
- tracer uptake muscles ([2]; 15 minutes post injection, n=6): 4.4±1.1 % ID/g
- tracer uptake small intestines ([2]; 15 minutes post injection, n=6): 7.0±2.4 % ID/g
- tracer uptake spleen ([2]; 15 minutes post injection, n=6): 4.7±1.2 % ID/g
- tracer uptake stomach ([2]; 15 minutes post injection, n=6): 5.2±1.7 % ID/g
- tracer uptake bladder ([2]; 60 minutes post injection, n=6): 4.3±1.2 % ID/g
- tracer uptake blood ([2]; 60 minutes post injection, n=6): 2.2±0.3 % ID/g
- tracer uptake brain ([2]; 60 minutes post injection, n=6): 0.9±0.1 % ID/g
- tracer uptake femur ([2]; 60 minutes post injection, n=6): 1.8±0.8 % ID/g
- tracer uptake heart ([2]; 60 minutes post injection, n=6): 9.5±1.5 % ID/g
- tracer uptake kidneys ([2]; 60 minutes post injection, n=6): 11.7±1.5 % ID/g
- tracer uptake large intestines ([2]; 60 minutes post injection, n=6): 4.6±0.9 % ID/g
- tracer uptake liver ([2]; 60 minutes post injection, n=6): 14.0±1.9 % ID/g
- tracer uptake lungs ([2]; 60 minutes post injection, n=6): 4.9±0.8 % ID/g
- tracer uptake muscles ([2]; 60 minutes post injection, n=6): 4.2±0.3 % ID/g
- tracer uptake small intestines ([2]; 60 minutes post injection, n=6): 10.7±1.1 % ID/g
- tracer uptake spleen ([2]; 60 minutes post injection, n=6): 3.6±0.6 % ID/g
- tracer uptake stomach ([2]; 60 minutes post injection, n=6): 8.4±1.5 % ID/g
- crossing of the blood brain barrier ([2]; biodistribution, 15 and 60 minutes): did not appear to cross the blood brain barrier
- SUV mean, tumor uptake (U87 tumor cells; orthotopically implanted U87 mice, n=3): 0.50
- time of maximal tumor uptake post injection (U87 tumor cells; time activity curves over 2 hour period): 60 min
- SUV mean, uptake in the brain ([3]; tumor-free control mice, summed PET images): 0.19
- crossing of the blood brain barrier ([3]; tumor-free mice, PET): does not cross the blood brain barrier
